Paper PMC9697349, “Mouse Pharmacokinetics and In Vitro Metabolism of SH-11037 and SH-11008, Synthetic Homoisoflavonoids for Retinal Neovascularization” (Pharmaceutics, 2022)

What was measured:
[1] = Stability of SH-11037 in human plasma; type: in vitro ADME; conditions: pH 7.4, SH-11037 1 µM, 37 °C, read-out: half-life (t1/2) of hydrolysis to SH-11008
Experimental: SH-11037 (1 μM) was incubated in triplicate in 0.1 M phosphate buffer (pH 7.4) or in mouse, dog, and human plasma to investigate its stability. SH-11037 (40 μM) in 50 vol% aqueous CH3CN was mixed with 0.1 M phosphate buffer (pH 7.4) or plasma diluted 3-fold with 0.1 M phosphate buffer (pH 7.4) to a final volume of 160 μL and a final concentration of 1 μM. The resulting solutions were then incubated at 37 °C in a shaking water bath. The incubations were terminated at selected times by adding 160 µL of ice-cold CH3CN containing glipizide (500 ng/mL) as the internal standard (IS). The resulting mixture was vortexed, sonicated, and centrifuged at 3000× g for 20 min. Aliquots of the supernatant were subjected to LC-MS/MS analysis described below in Section 2.6.2.
The LC-MS/MS system consisted of Agilent 1290 Infinity HPLC system and Agilent 6530 Accurate-Mass Quadrupole Time-of-Flight (Q-TOF) mass spectrometer equipped with dual AJS ESI ion source (Agilent Technologies Korea, Seoul, Korea). Chromatographic separation was performed on an Agilent Eclipse Plus C18 column (2.1 × 100 mm, 3.5 μm) with a Phenomenex Security Guard C18 guard column (4 × 20 mm) maintained at 40 °C. The mobile phase consisted of 0.1% formic acid in deionized water (A) and 0.1% formic acid in CH3CN (B): 0~2 min 5% B, 2~7 min to 95% B, and 7~10 min 95% B. Total run time including a 5 min equilibration time was 15 min. […]

[2] = Metabolic stability of SH-11008 in mouse liver S9 fractions; type: in vitro ADME
Experimental: For studies using NADPH or PAPS as a cofactor, 4 μL of SH-11008 (40 μM) solution in 40 vol% CH3CN were mixed with 40 μL of 4 mg protein/mL HLS9 or MLS9 fractions diluted in 0.1 M potassium phosphate buffer (pH 7.4) and 100 μL of 0.1 M potassium phosphate buffer (pH 7.4). When using UDPGA as a cofactor, 32 μL of UGT Reaction Mix Solution B and 68 μL of de-ionized water were used instead of 100 μL of 0.1 M potassium phosphate buffer (pH 7.4). The mixture was warmed at 37 °C for 5 min. The reaction was then initiated by adding 16 μL of 10 mM cofactor dissolved in de-ionized water. The assay condition for UDPGA was used for metabolic stability studies conducted with a mixture of the three cofactors. The reaction was terminated at selected times by adding 160 μL of ice-cold CH3CN containing glipizide (500 ng/mL) as the IS. The resulting mixture was vortexed, sonicated, and centrifuged at 3000× g for 20 min. Aliquots of the supernatant were subjected to LC-MS/MS analysis described below in Section 2.6.2.
The LC-MS/MS system consisted of Agilent 1290 Infinity HPLC system and Agilent 6530 Accurate-Mass Quadrupole Time-of-Flight (Q-TOF) mass spectrometer equipped with dual AJS ESI ion source (Agilent Technologies Korea, Seoul, Korea). Chromatographic separation was performed on an Agilent Eclipse Plus C18 column (2.1 × 100 mm, 3.5 μm) with a Phenomenex Security Guard C18 guard column (4 × 20 mm) maintained at 40 °C. The mobile phase consisted of 0.1% formic acid in deionized water (A) and 0.1% formic acid in CH3CN (B): 0~2 min 5% B, 2~7 min to 95% B, and 7~10 min 95% B. Total run time including a 5 min equilibration time was 15 min. The flow rate was 0.4 mL/min. The injection volume was 5 µL. The mass spectrometer was operated in a positive Auto MS/MS scan mode with a full scan mass range of m/z 100–1000, fragmentor voltage 150 V, and CE 30 eV, selecting the two most intense precursor ions for collision-induced dissociation. Putative metabolites were identified using Agilent Mass Hunter Metabolite ID software (ver.B.04.00) followed by manual interpretation of the spectral data. Chromatograms and mass spectra were extracted using Agilent Mass Hunter Qualitative Analysis software (ver. B.05.00).
Pharmacokinetic parameters were calculated by noncompartmental analysis of plasma concentration versus time profiles using PKSolver. The scaling factors of mice and human, half-life (t1/2), intrinsic clearance (CLint), hepatic clearance (CLH), and hepatic extraction ratio (EH) were from the in vitro studies as described previously. […] The fraction of parent drug converted to the metabolite (fm) was calculated as follows:fm (%) = (AUC(m) × CL(m))/D × MWparent/MWmetabolite × 100,(1) where D is dose of the parent drug, AUC(m) is area under the curve for the metabolite after a dose of parent drug, CL(m) is CL of metabolite, and MW is molecular weight.

Row | CLint scaled at 1 µM ([2]; CD-1, liver S9 fractions, pH 7.4, mouse, scaled from in vitro t1/2 in MLS9) | half-life at 1 µM ([2]; CD-1, mouse, liver S9 fractions, SH-11008 1 µM, MLS9 1 mg protein/mL, mixture of NADPH, UDPGA and PAPS (1 mM), 37 °C) | metabolic stability with cofactor added individually ([2]; MLS9, NADPH, UDPGA or PAPS 1 mM individually, 30 min) | EH ([2]; mouse, predicted hepatic extraction ratio from MLS9 data) | CLH ([2]; mouse, predicted with the well-stirred model from MLS9 data) | Compound | half-life at 1 µM [1]
1 |  |  |  |  |  | COc1ccc(CC2COc3cc(OC)c(OC)c(OC)c3C2=O)cc1OC(=O)[C@H](Cc1ccccc1)NC(=O)OC(C)(C)C (stereo partly drawn) [SH-11037] | 73.2 min
2 | 1510 mL/min/kg | 5.7 min | metabolized rapidly | 0.94 | 84.9 mL/min/kg | COc1ccc(CC2COc3cc(OC)c(OC)c(OC)c3C2=O)cc1O (stereo not drawn) [SH-11008] | 
